# From patent publication US9803021B2 (The Regents of the University of California, priority 2012, dated 2017)
# “Also recorded” adds a separate entry of the source.
# Experiments:
# U266 [1] = experiment: MTS assay (cell viability / metabolic activity); format: cell-based, human; conditions: U266, 3 days
# Protocol: (§1) Percent cell viability was determined using MTS solution (Promega, Madison, Wis.) by measuring absorbance at 490 nm using a Synergy HT Multi-Detection Microplate Reader (BioTek Instruments, Inc., Winooski, Vt.) with untreated cells being 100%. GraphPad Prism (GraphPad Software Inc., La Jolla, Calif.) was used to analyze data by non-linear regression with the log (inhibitor) vs. the response with a variable slope with the IC50 calculated. Data are expressed as a percentage of maximum metabolic activity. The experiments were performed in triplicate.
# as §1, with “Metabolic activity” for “Percent cell viability”, “(Promega)” for “(Promega, Madison, Wis.)”, “Instruments Inc.)” for “Instruments, Inc., Winooski, Vt.)”, “Inc.)” for “Inc., La Jolla, Calif.)”, “versus” for “vs.”, “slope.” for “slope with the IC50 calculated.”
# NCI-H929 = experiment: MTS assay (cell viability / metabolic activity); format: cell-based, human; conditions: 3 days
# Protocol: as §1
# as §1, with “Metabolic activity” for “Percent cell viability”, “(Promega)” for “(Promega, Madison, Wis.)”, “Instruments Inc.)” for “Instruments, Inc., Winooski, Vt.)”, “Inc.)” for “Inc., La Jolla, Calif.)”, “versus” for “vs.”, “slope.” for “slope with the IC50 calculated.”
# ANBL-6 [2] = experiment: MTS assay (cell viability / metabolic activity); format: cell-based, human; conditions: ANBL-6, 3 days or 7 days
# Protocol: as §1
# as §1, with “Metabolic activity” for “Percent cell viability”, “(Promega)” for “(Promega, Madison, Wis.)”, “Instruments Inc.)” for “Instruments, Inc., Winooski, Vt.)”, “Inc.)” for “Inc., La Jolla, Calif.)”, “versus” for “vs.”, “slope.” for “slope with the IC50 calculated.”
# OCI-My5 [3] = experiment: MTS assay (cell viability / metabolic activity); format: cell-based, human; conditions: OCI-My5, 3 days
# Protocol: as §1
# as §1, with “Metabolic activity” for “Percent cell viability”, “(Promega)” for “(Promega, Madison, Wis.)”, “Instruments Inc.)” for “Instruments, Inc., Winooski, Vt.)”, “Inc.)” for “Inc., La Jolla, Calif.)”, “versus” for “vs.”, “slope.” for “slope with the IC50 calculated.”
# MM1-144 = experiment: MTS assay (cell viability / metabolic activity); format: cell-based, human; conditions: MM144 (MM1-144), 3 days
# Protocol: as §1
# as §1, with “Metabolic activity” for “Percent cell viability”, “(Promega)” for “(Promega, Madison, Wis.)”, “Instruments Inc.)” for “Instruments, Inc., Winooski, Vt.)”, “Inc.)” for “Inc., La Jolla, Calif.)”, “versus” for “vs.”, “slope.” for “slope with the IC50 calculated.”
# U266 tumors = experiment: U266 xenograft model in NSG mice; conditions: U266 s.c., 100 μg on days 14, 16, 18
# Protocol: For U266 tumors, NOD scid IL-2 receptor gamma chain knock out (NSG) mice were injected subcutaneously with 1×10^7 U226 cells and treated on days 14, 16 and 18 with 100 μg of the indicated proteins. […] Survival was monitored as well as the size of the tumors.
# For U266 tumors, experiments were carried out as described above except that NOD-scid IL2rγ^null (NSG) mice were used.
# Daudi cells = experiment: Binding of anti-CD138 IgG to Daudi cells; set-up: species or system human; conditions: data not shown
# U266 [4] = experiment: Senescence induced β-gal activity at pH 6 (C12FDG, flow cytometry); format: cell-based, human; conditions: U266, 1 nM, 3 days
# Protocol: (§2) Senescence induced β-galactosidase (β-gal) activity was detected as described previously (Debacq-Chainiaux et al. (2009) Nature Protocols, 4: 1798-1806). […] To induce lysosomal alkalinization, cells were incubated in 100 nM bafilomycin A1 (Sigma) for 1 h. Then cells were incubated for 30 min with the β-gal substrate dodecanoylaminofluorescein di-β-D-galactopyranoside (C12FDG; Invitrogen), which becomes fluorescent after cleavage by β-gal. After washing twice with cold PBS, cells were resuspended in cold PBS containing 1 mM phenylethyl thiogalactoside (PETG), a β-gal inhibitor, and analyzed by flow cytometry for C12-fluorescein.
# (§3) Intracellular β-galactosidase (β-gal) activity was measured as an indicator for replicative senescence. […] After treatment, cells were incubated with 100 nM bafilomycin A1 (Sigma) for 1 hour to induce lysosomal alkalinization. Then cells were incubated for 30 minutes with the 33 μM of β-gal substrate dodecanoylaminofluorescein di-β-D-galactopyranoside (C12FDG; Invitrogen), which becomes fluorescent after cleavage to C12-fluorescein. After washing twice with cold PBS, cells were resuspended in cold PBS containing 1 mM phenylethyl thiogalactoside (PETG), a β-gal inhibitor, and analyzed by flow cytometry for C12-fluorescein.
# ANBL-6 [5] = experiment: as above; format: cell-based, human; conditions: ANBL-6, 1 nM, 3 days (data not shown)
# Protocol: as §2, §3
# OCI-My5 [6] = experiment: as above; format: cell-based, human; conditions: OCI-My5, 1 nM, 3 days (also 4, 6, 7 days)
# Protocol: as §2, §3
# OCI-My 5 tumors = experiment: OCI-My5 xenograft model in SCID mice; format: in vivo, mouse; conditions: OCI-My5 s.c., 100 μg i.v. on days 14, 16, 18
# Source text: Eight mice were included in each group.
# Each group consisted of eight mice.
# [7] = tested on: primary myeloma cells from patients; experiment: Treatment of primary myeloma cells from patients (trypan blue / MTT); format: cell-based, human; conditions: 25 nM, 72 h
# Protocol: Trypan blue and MTT assays were used to determine the number of viable cells. The percentage of viable recovered cells was calculated based upon the number of viable cells recovered from DMSO-treated control cells, which was arbitrarily designated as 100%.
# Percent viable cell recovery was determined by trypan blue staining, with untreated control cells designated as 100%.
# OCI-My 5 cells = experiment: Cell proliferation assay (3[H]-thymidine incorporation); format: cell-based, human; conditions: OCI-My 5, 0.3 pM-25 nM, 3 days
# Protocol: The proliferative status of the cells was determined by measuring ^3[H]-thymidine incorporation.
substance,measurement,setting,value
anti-CD138: Unfused human anti-CD138 IgG1 with VH and VL of antibody B-B4 [reference compound],"cell viability / growth inhibition (MTS assay), result in words",U266 [1],no effect
same,"cell viability / growth inhibition (MTS assay), result in words",NCI-H929,no effect
same,"cell viability / growth inhibition (MTS assay), result in words",ANBL-6 [2],no effect
same,"cell viability / growth inhibition (MTS assay), result in words",OCI-My5 [3],no effect
same,"cell viability / growth inhibition (MTS assay), result in words",MM1-144,no effect
same,"survival / protection against tumor growth, result in words",U266 tumors,significant protection
same,binding to Daudi cells,Daudi cells,did not bind to Daudi cells
same,"β-gal activity at pH 6 (senescence), result in words",U266 [4],no increase under any conditions
same,"β-gal activity at pH 6 (senescence), result in words",ANBL-6 [5],no increases
same,"β-gal activity at pH 6 (senescence), result in words",OCI-My5 [6],little or no increase in β-gal activity
same,"survival / protection, result in words",OCI-My 5 tumors,increased survival slightly; also recorded: did not differ significantly from PBS treated mice
same,"viability of primary myeloma cells, result in words",[7],little effect
same,"proliferation (3[H]-thymidine incorporation), result in words",OCI-My 5 cells,did not decrease the ability of the cells to proliferate
